Measurements from ChEMBL document CHEMBL1132404, “2,4,6-triarylchalcogenopyrylium dyes related in structure to the antitumor agent AA1 as in vitro sensitizers for the photodynamic therapy of cancer” (J Med Chem, 1999).

Assays:
[1] = Inhibition of mitochondrial Cytochrome c Oxidase.; details: concentration not given here
[2] = Partition coefficient (logP); type: physicochemical; details: octanol/water
[3] = (§1) The rate of hydrolysis as a function of time; type: functional
R3230AC = assay: Cell viability was measured against R3230AC rat mammary adenocarcinoma cells at 10 uM concentration; type: functional
[4] = as §1; type: ADME

Row | inhibition [1] | logP [2] | k1 [4] | k2 [4] | Structure (SMILES) | k1 [3] | k2 [3] | Cell viability (R3230AC)
1 | 0.78% | 1.7 |  |  | CN(C)c1ccc(-c2cc(-c3ccc(N(C)C)cc3)[se+]c(-c3ccc(N(C)C)cc3)c2)cc1 | 0.00024 s⁻¹ | 1.7e-05 s⁻¹ | 
2 | 0.82% | 2.2 | 0.0001 s⁻¹ | 0.000022 s⁻¹ | CN(C)c1ccc(-c2cc(-c3ccc(N(C)C)cc3)[s+]c(-c3ccc(N(C)C)cc3)c2)cc1.[Cl-] |  |  | 

Row | Structure (SMILES) | inhibition [1] | logP [2] | k1 [4] | k2 [4] | k1 [3] | k2 [3] | Cell viability (R3230AC)
3 | CN(C)c1ccc(-c2cc(-c3ccc(N(C)C)cc3)[te+]c(-c3ccc(N(C)C)cc3)c2)cc1.[Cl-] | 0.38% | 2.3 |  |  | 0.00024 s⁻¹ | 1.1e-05 s⁻¹ | ~75%
